Data taken from ChEMBL document CHEMBL3399949, “Fingerprint-based consensus virtual screening towards structurally new 5-HT(6)R ligands” (Bioorg Med Chem Lett, 2015).

Assay: Dissociation constant, pKa of the compound
Format: physicochemical

Structure (SMILES) | pKa
Cc1ccc(Nc2c(S(=O)(=O)c3ccccc3)cnc3ccc(Cl)cc23)cc1 | 2.34
Cc1ccc(Cl)cc1N(C)C(=O)c1cn(-c2ccc(F)cc2F)c(=O)c2ccccc12 | -1.07
Nc1c(S(=O)(=O)c2ccccc2)sc2nc(-c3ccccc3)cc(-c3ccccc3)c12 | -0.69
O=S(=O)(Nc1cc(Sc2cccc3cccnc23)c(O)c2ccccc12)c1ccccc1 | 3.48
Cc1ccc(S(=O)(=O)c2cnc3ccc(F)cc3c2SCc2ccc(Cl)cc2)cc1 | -0.25
NC(=O)C1CCN(c2c(S(=O)(=O)c3ccccc3)cnc3ccc(Cl)cc23)CC1 | 3.05
O=S(=O)(Nc1ccn(Cc2cccc3ccccc23)n1)c1ccc(Br)s1 | 1.93
O=S(=O)(Nc1cc(Sc2cccc3cccnc23)c(O)c2ccccc12)c1ccc(F)cc1 | 3.48
O=S(=O)(Nc1cc2c(c3ccccc13)OC1(N3CCOCC3)CCCCC21)c1ccccc1 (centres undefined) | 5.56
O=S(=O)(Nc1ccccc1-c1nccc2ccccc12)c1ccc(Cl)cc1 | 5.3
Brc1ccc2c(c1)c1c3n2CCN(Cc2ccccc2)C3CCC1 (centres undefined) | 6.95
COCCn1c(C)c(C)c(S(=O)(=O)c2ccc(Cl)cc2)c1N | -0.59
COc1cccc(-n2cc(C(=O)N(C)c3cccc(Cl)c3)c3ccccc3c2=O)c1 | -1.37
Cc1ccc(S(=O)(=O)N/N=C2\CCCc3c2[nH]c2ccc(Cl)cc32)cc1 | -0.33
